# From patent US20260133193A1, “COMPOSITIONS AND METHODS FOR TREATING INFLAMMATORY DISEASES” (University of Washington, priority 2018, published 2026)
# Entries after “also recorded” stand apart in the source; their conditions may differ.
# Legend:
# neutrophils = assay: Phagocytosis assay in neutrophils (flow cytometry); type: cell-based, human
# Experimental: To determine whether the reciprocal was true, namely, that TLR activation could inhibit phagocytosis of ICs, the uptake of RNase-treated RNP-ICs was analyzed in presence of the TLR7/8 agonist, R848. […] Specifically, neutrophils were stimulated with R848 prior to incubation with RNase-treated RNP-ICs, HAGG, beads or zymosan. The results are expressed as phagocytosis as compared to no R848 added (% of control). […] Finally, to determine if TLR7/8 activation affected the internalization process and/or the binding ability of the ICs, neutrophils were treated with the cytoskeleton inhibitor Cytochalasin B prior to adding the ICs, thus blocking uptake, but not binding. Specifically, neutrophils, treated with or without R848 followed by cytochalasin B (CytoB, 5 μM), were analyzed for binding and uptake of RNP-ICs by flow cytometry.
# SLE IgG, SmRNP and heat-aggregated IgG (HAGG) were labeled with Alexa-647 according to manufacturer's protocol (Life Technologies). Neutrophils, or PBMCs, from healthy individual were stimulated with different ICs, FITC-conjugated latex beads or zymosan (100 μg/mL, Life Technologies) for 30 minutes at 37° C. and immediately analyzed for phagocytosis. In blocking experiments, neutrophils were incubated with 0.1 μM TLR7-9 or control iODN (Enzo Life Sciences), CMK (25 μM, Enzo Life Sciences), cytochalasin B (5 M, Sigma) or antibodies directed against CD16, CD32 or CD64 (all used at 10 μg/mL, BioLegend) for 30 minutes before addition of stimuli. In some experiments, R848, at a concentration of 2 μg/mL, or neutrophil supernatant, was added 30 and 90 minutes before addition of the phagocytic stimuli, respectively.
# FcgRIIA on neutrophils = assay: FcgRIIA shedding, flow cytometry of neutrophil cell surface FcgRs; type: cell-based, human; details: flow cytometry
# From the text: To determine the mechanism for the TLR-induced reduction in RNP-IC phagocytosis, we analyzed the neutrophil surface expression of FcgRs after exposure to TLR ligand. Neutrophils were activated with R848 and cell surface expression of FcgRs analyzed by flow cytometry. The results were presented as FcgR levels as compared to no R848 added (% of control). The experiment was repeated five (FcgRI), seven (FcgRIII), and twenty-five (FcgRIIA) times; combined results were compared using paired t test (FcgRIIA, P<0.0001; FcgRI, P=0.027; FcgRIII, P=0.0044). […] In this experiment, neutrophils were activated with the TLR7/8 agonist R848 and analyzed for FcgRIIA at different time-points and concentrations. The experiment was repeated four (concentration) and six (kinetics) times; combined results were compared using paired t test (30 min, P=0.0158; 60 min, P<0.0001; 120 min, P=0.0003; 0.125 μg/mL, P=0.0071; 0.25 μg/mL, P=0.0058; 0.5 μg/mL, P=0.0008; 1 μg/mL, P<0.0001; 2 μg/mL, P<0.0001). […] For these experiments, neutrophils were activated with TLR ligands (LPS, 1 μg/mL, PAM3CSK4 (5 μg/mL), CpG DNA (2 μg/mL), Loxoribine (0.1 mM), CL075 (2.5 μg/mL) or R848 (2 μg/mL)) for 60 minutes or 4 hours and analyzed for FcgRIIA, FcgRII or CD11b and CD66b cell surface expression by flow cytometry. Experiments were repeated six (LPS, P=0.0008), eight (CpG DNA, P=0.035; Loxoribine, P<0.0001, and CL075, P<0.0001), ten (PAM3CSK4, P<0.0001) and forty times (R848, P<0.0001); combined results were compared using paired t test. Additional experiments were repeated four and eight times; combined results were compared using paired t test (CD11b: R848, P<0.0001; LPS, P=0.0002; PAM, P<0.0001; CpG DNA, P<0.0001; CD66b: R848, P<0.0001; LPS, P<0.0001; PAM, P<0.0001; CpG DNA, P=0.014).
# Neutrophils were activated by LPS (1 μg/mL), R848 (2 μg/mL), PAM3CSK4 (5 μg/mL), Loxoribine (0.1 mM), CL075 (2.5 μg/mL) or CpG DNA (2 μg/mL) for 30 minutes, followed by analysis of cell surface expression of CD32A (IV.3; Stemcell Technologies, FUN-2, BioLegend), CD16 (clone 3G8), CD64 (clone 10.1), and CD66b (all from BioLegend) by flow cytometry. For intracellular staining, neutrophils were fixed in 2% paraformaldehyde for 10 minutes, permeabilized with saponin (diluted 1:1000 in PBS) for 15 minutes and stained with anti-CD32A antibodies diluted 1:100. In some experiments, neutrophils were incubated with inhibitors (DPI (25 μM, Sigma), apocynin (100 μM, Sigma), GM-6001 (10 μM, Enzo Life Sciences), LY294002 (10 μM), cOmplete Protease Inhibitor Cocktail Tablets (1× dissolved in H2O, Roche), neutrophil elastase IV inhibitor (25 μM, Calbiochem), E-64 (1 μM, Sigma), 4-(2-Aminoethyl)benzenesulfonyl fluoride hydrochloride (AEBSF, 0.1 mM, Sigma), CMK (25 μM, Enzo Life Sciences), cytochalasin B (5 μM, Sigma) or chymostatin (10 μg/mL, Sigma)) or recombinant furin (100 ng/mL, maximal dose tolerated by the neutrophils, Peprotech) 30 minutes prior to addition of stimuli. In some experiments cell surface levels of B cell activating factor (BAFF, Biolegend) was analyzed according to the same protocol as described above. Monocytes and pDCs were detected using antibodies to CD14 (BioLegend) and CD304 (Miltenyi Biotech), respectively.
# [1] = neutrophils stimulated with R848 before stimuli, vs no R848
structure (smiles),measurement,setting,value
CCOCc1nc2c(N)nc3ccccc3c2n1CC(C)(C)O [R848],uptake of RNase-treated RNP-ICs and HAGG by neutrophils,neutrophils; [1],significantly decreased uptake of ICs as well as heat-aggregated IgG (HAGG)
same,uptake of beads and zymosan by neutrophils,neutrophils; [1],increased uptake of beads and zymosan
same,binding and uptake of RNP-ICs by neutrophils,"neutrophils; with or without R848, followed by cytochalasin B 5 μM",suppressed both IC-mediated binding and subsequent phagocytosis
same,neutrophil cell surface expression of FcgRIIA after stimulus,"FcgRIIA on neutrophils; clone IV.3, vs non-stimulated",significantly reduced; also recorded: time- and dose-dependent
same,neutrophil surface levels of FcgRIIIB and FcgRI after stimulus,FcgRIIA on neutrophils; vs no R848,increased
